# Results as given in PubChem BioAssay AID1963984 (Molecular Pharmacology Branch, DTP, NCI, 2024).
# Test system: 233499-124-R-J3-PDC spheroids with HUVEC/MSC, viability
# Assay: Anticancer human tumor 233499-124-R-J3-PDC patient-derived colon adenocarcinoma cell line growth inhibition [PI3K]
# Details: for IC50: curve of first compound; for viability, T/C: stronger effect = lower value
# Procedure, shortened: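 Combination activity was assessed by viability in multicellular tumor spheroids carrying HUVEC and MSC components. Agents were tested with PI3K inhibitors from a Cmax-based top dose (or 10 microM) downward in half-log increments.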
# [1] = second compound 0.0316 µM, first compound 0.0316 µM
# [2] = second compound 0.0316 µM, first compound 0.1 µM
# [3] = second compound 0.1 µM, first compound 0.0316 µM
# [4] = second compound 0.1 µM, first compound 0.1 µM
# [5] = second compound 0.316 µM, first compound 0.0316 µM
# [6] = second compound 0.316 µM, first compound 0.1 µM
# [7] = second compound 1 µM, first compound 0.0316 µM
# [8] = second compound 1 µM, first compound 0.1 µM
# [9] = second compound 3.16 µM, first compound 0.0316 µM
# [10] = second compound 3.16 µM, first compound 0.1 µM
# [11] = second compound 10 µM, first compound 0.0316 µM
# [12] = second compound 10 µM, first compound 0.1 µM
# [13] = second compound 0.0316 µM, first compound 0.316 µM
# [14] = second compound 0.0316 µM, first compound 1 µM
# [15] = second compound 0.0316 µM, first compound 3.16 µM
# [16] = second compound 0.0316 µM, first compound 10 µM
# [17] = second compound 0.1 µM, first compound 0.316 µM
# [18] = second compound 0.1 µM, first compound 1 µM
# [19] = second compound 0.1 µM, first compound 3.16 µM
# [20] = second compound 0.1 µM, first compound 10 µM
# [21] = second compound 0.316 µM, first compound 0.316 µM
# [22] = second compound 0.316 µM, first compound 1 µM
# [23] = second compound 0.316 µM, first compound 3.16 µM
# [24] = second compound 0.316 µM, first compound 10 µM
# [25] = second compound 1 µM, first compound 0.316 µM
# [26] = second compound 1 µM, first compound 1 µM
# [27] = second compound 1 µM, first compound 3.16 µM
# [28] = second compound 1 µM, first compound 10 µM
# [29] = second compound 3.16 µM, first compound 0.316 µM
# [30] = second compound 3.16 µM, first compound 1 µM
# [31] = second compound 3.16 µM, first compound 3.16 µM
# [32] = second compound 3.16 µM, first compound 10 µM
# [33] = second compound 10 µM, first compound 0.316 µM
# [34] = second compound 10 µM, first compound 1 µM
# [35] = second compound 10 µM, first compound 3.16 µM
# [36] = second compound 10 µM, first compound 10 µM
# 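Also: spheroids exposed to agents for seven days before readout.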
# 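For viability, T/C in this document: percent viability relative to DMSO vehicle control taken as 100%.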
smiles,measurement,setting,value
CC(C)n1nc(-c2ccc3oc(N)nc3c2)c2c(N)ncnc21 + CC(Nc1ncnc2nc[nH]c12)c1cc2cccc(Cl)c2c(=O)n1-c1ccccc1,IC50,second compound 0.0316 µM,0.0811 µM
same,IC50,second compound 0.1 µM,0.0893 µM
same,IC50,second compound 0.316 µM,> 0.1 µM
same,IC50,second compound 1 µM,0.083 µM
same,IC50,second compound 3.16 µM,> 0.1 µM
same,IC50,second compound 10 µM,0.0909 µM
same,"viability, T/C","second compound 0.0316 µM, first compound 0.000316 µM",108%
same,"viability, T/C","second compound 0.0316 µM, first compound 0.001 µM",90.8%
same,"viability, T/C","second compound 0.0316 µM, first compound 0.00316 µM",104%
same,"viability, T/C","second compound 0.0316 µM, first compound 0.01 µM",79.4%
same,"viability, T/C",[1],73.2%
same,"viability, T/C",[2],44.5%
same,"viability, T/C","second compound 0.1 µM, first compound 0.000316 µM",96.3%
same,"viability, T/C","second compound 0.1 µM, first compound 0.001 µM",85.1%
same,"viability, T/C","second compound 0.1 µM, first compound 0.00316 µM",97.8%
same,"viability, T/C","second compound 0.1 µM, first compound 0.01 µM",79.3%
same,"viability, T/C",[3],84.2%
same,"viability, T/C",[4],45.9%
same,"viability, T/C","second compound 0.316 µM, first compound 0.000316 µM",93.2%
same,"viability, T/C","second compound 0.316 µM, first compound 0.001 µM",82.6%
same,"viability, T/C","second compound 0.316 µM, first compound 0.00316 µM",83.3%
same,"viability, T/C","second compound 0.316 µM, first compound 0.01 µM",95.9%
same,"viability, T/C",[5],75.2%
same,"viability, T/C",[6],81.7%
same,"viability, T/C","second compound 1 µM, first compound 0.000316 µM",88.5%
same,"viability, T/C","second compound 1 µM, first compound 0.001 µM",82.2%
same,"viability, T/C","second compound 1 µM, first compound 0.00316 µM",104%
same,"viability, T/C","second compound 1 µM, first compound 0.01 µM",93%
same,"viability, T/C",[7],83.2%
same,"viability, T/C",[8],43.3%
same,"viability, T/C","second compound 3.16 µM, first compound 0.000316 µM",83.4%
same,"viability, T/C","second compound 3.16 µM, first compound 0.001 µM",89.5%
same,"viability, T/C","second compound 3.16 µM, first compound 0.00316 µM",107%
same,"viability, T/C","second compound 3.16 µM, first compound 0.01 µM",67.7%
same,"viability, T/C",[9],74.3%
same,"viability, T/C",[10],64.8%
same,"viability, T/C","second compound 10 µM, first compound 0.000316 µM",82.4%
same,"viability, T/C","second compound 10 µM, first compound 0.001 µM",96.2%
same,"viability, T/C","second compound 10 µM, first compound 0.00316 µM",88.3%
same,"viability, T/C","second compound 10 µM, first compound 0.01 µM",79.7%
same,"viability, T/C",[11],78.8%
same,"viability, T/C",[12],47.2%
CC1(C)CCC(CN2CCN(c3ccc(C(=O)NS(=O)(=O)c4ccc(NCC5CCOCC5)c([N+](=O)[O-])c4)c(Oc4cnc5[nH]ccc5c4)c3)CC2)=C(c2ccc(Cl)cc2)C1 + CC(Nc1ncnc2nc[nH]c12)c1cc2cccc(Cl)c2c(=O)n1-c1ccccc1,IC50,second compound 0.0316 µM,5.69 µM
same,IC50,second compound 0.1 µM,5.6 µM
same,IC50,second compound 0.316 µM,5.61 µM
same,IC50,second compound 1 µM,5.39 µM
same,IC50,second compound 3.16 µM,4.74 µM
same,IC50,second compound 10 µM,5.45 µM
same,"viability, T/C",[1],87.4%
same,"viability, T/C",[2],101%
same,"viability, T/C",[13],95.4%
same,"viability, T/C",[14],96.6%
same,"viability, T/C",[15],96.2%
same,"viability, T/C",[16],6.26%
same,"viability, T/C",[3],89.9%
same,"viability, T/C",[4],98.7%
same,"viability, T/C",[17],87.5%
same,"viability, T/C",[18],99.6%
same,"viability, T/C",[19],106%
same,"viability, T/C",[20],2.9%
same,"viability, T/C",[5],116%
same,"viability, T/C",[6],92.6%
same,"viability, T/C",[21],89.8%
same,"viability, T/C",[22],95.4%
same,"viability, T/C",[23],96.7%
same,"viability, T/C",[24],2.85%
same,"viability, T/C",[7],96.5%
same,"viability, T/C",[8],83.6%
same,"viability, T/C",[25],103%
same,"viability, T/C",[26],90.3%
same,"viability, T/C",[27],91.2%
same,"viability, T/C",[28],2.36%
same,"viability, T/C",[9],81.8%
same,"viability, T/C",[10],84.7%
same,"viability, T/C",[29],98.8%
same,"viability, T/C",[30],97.1%
same,"viability, T/C",[31],76%
same,"viability, T/C",[32],2.35%
same,"viability, T/C",[11],79.6%
same,"viability, T/C",[12],94%
same,"viability, T/C",[33],86.8%
same,"viability, T/C",[34],94.7%
same,"viability, T/C",[35],93.1%
same,"viability, T/C",[36],5.61%
C[C@@H](NC(=O)c1ncnc(N)c1Cl)c1ncc(C(=O)Nc2cc(C(F)(F)F)c(Cl)cn2)s1 + CC(Nc1ncnc2nc[nH]c12)c1cc2cccc(Cl)c2c(=O)n1-c1ccccc1,IC50,second compound 0.0316 µM,> 10 µM
same,IC50,second compound 0.1 µM,> 10 µM
same,IC50,second compound 0.316 µM,> 10 µM
same,IC50,second compound 1 µM,> 10 µM
same,IC50,second compound 3.16 µM,> 10 µM
same,IC50,second compound 10 µM,> 10 µM
same,"viability, T/C",[1],110%
same,"viability, T/C",[2],105%
same,"viability, T/C",[13],109%
same,"viability, T/C",[14],104%
same,"viability, T/C",[15],105%
same,"viability, T/C",[16],78.4%
same,"viability, T/C",[3],97.4%
same,"viability, T/C",[4],105%
same,"viability, T/C",[17],116%
same,"viability, T/C",[18],106%
same,"viability, T/C",[19],110%
same,"viability, T/C",[20],101%
same,"viability, T/C",[5],109%
same,"viability, T/C",[6],120%
same,"viability, T/C",[21],111%
same,"viability, T/C",[22],95.4%
same,"viability, T/C",[23],89.2%
same,"viability, T/C",[24],98.5%
same,"viability, T/C",[7],83.3%
same,"viability, T/C",[8],92.9%
same,"viability, T/C",[25],109%
same,"viability, T/C",[26],116%
same,"viability, T/C",[27],111%
same,"viability, T/C",[28],93.7%
same,"viability, T/C",[9],106%
same,"viability, T/C",[10],101%
same,"viability, T/C",[29],97.7%
same,"viability, T/C",[30],109%
same,"viability, T/C",[31],109%
same,"viability, T/C",[32],95.6%
same,"viability, T/C",[11],87.8%
same,"viability, T/C",[12],90.2%
same,"viability, T/C",[33],101%
same,"viability, T/C",[34],97.7%
same,"viability, T/C",[35],108%
same,"viability, T/C",[36],97%
